Where two headings read alike, the source gives them in different places.
What was measured:
[1] = rabbits, EU criteria (ECETOC, 1996); solution of 35% or less; cited from earlier work
[2] = test system: bio burden; conditions: for Log reduction in bio burden: KIMGUARD bag, air RH=20% at 12 m/s over exterior

## hydrogen peroxide [H2O2]
[1]
  Classification as skin irritant: would not be classified as skin irritants
[2]; Expt A: initial H2O2 10%, nebulizer 2/18 sec ON/Off for 2 mins, total exposure 5 mins, 40 °C in bag
  Pennicylinders Plate count: 0
[2]; Expt A: initial H2O2 10%, nebulizer 2/18 sec ON/Off for 2 mins, total exposure 5 mins, 40 °C in bag, 0.0338 g/L delivered
  Pennicylinders Log reduction of bio burden: 6.0
[2]; Expt B: initial H2O2 30%, nebulizer 8/12 sec ON/Off for 2 mins, total exposure 2 mins, 44 °C in bag
  Pennicylinders Plate count: 0
[2]; Expt B: initial H2O2 30%, nebulizer 8/12 sec ON/Off for 2 mins, total exposure 2 mins, 44 °C in bag, 0.246 g/L delivered
  Pennicylinders Log reduction of bio burden: 6.0
[2]; within 2 minutes nebulising a 30% peroxide solution
  Log reduction in bio burden: 6
[2]; within 5 minutes nebulising a 10% peroxide solution
  Log reduction in bio burden: 6
